Patent US7834024B2, “Compositions and methods for inhibition of the JAK pathway” (Rigel Pharmaceuticals, Inc., priority 2007, dated 2010)

Columns and labels:
[1] = test system: Ramos B-Cell Line Stimulated with IL-4 (JAK-1 and JAK-3 / Stat-6, CD23); assay: Assay for Ramos B-Cell Line Stimulated with IL-4 (CD23 upregulation, FACS); type: cell-based; conditions: Homo sapiens, Ramos, human Ramos B cells, compound 1 hour, IL-4 50 units/mL for 20-24 hours, anti-CD23-PE FACS; read-out: Example 2 (IC50)
Outline: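 Human Ramos B cells (5×10^4 per point, RPMI with 5% serum) pre-incubated 1 hour at 37° C with compound or DMSO, then stimulated with IL-4 at 50 units/mL final for 20-24 hours. CD23 upregulation measured by flow cytometry.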

[2] = test system: JAK2 (BaF3 V617F cells, UKE-1); assay: Proliferation Assay (Cell Titer-Glo, 72 hours); type: cell-based; conditions: proliferation 72 hours, BaF3 V617F or UKE-1 cells, cell line not given, read-out: Example 7 (IC50)
Procedure: • Dimethyl Sulfoxide (DMSO) (Sigma-Aldrich, Cat No. D2650) (Control) • Iscove's DMEM, ATCC Catalog #30-2005 • 1 M HEPES, Cellgro Catalog #25-060-Cl (100 mL) • 100 mM Sodium Pyruvate, Cellgro Catalog #25-000-Cl (100 mL) • Penicillin/Streptomycin, 10000 U/mL each, Cellgro Catalog #30-002-Cl (100 mL) • RPMI 1640 (Cellgro, Cat No. 10-040-CM) • Fetal Bovine Serum (JRH, Cat No. 12106-500M) • Donor Equine Serum, Hyclone Catalog #SH30074.02 (100 mL) • 50 μM hydrocortisone solution, Sigma Catalog #H6909-10 ml (10 mL) Culture Conditions
BaF3 V617F cells are maintained and plated in RPMI with 10% FBS. Plating density for these cells is 1×10^5 cells/mL.
UKE-1 are maintained and plated in Iscove's DMEM containing 10% FBS, 10% equine serum, 1% penicillin/streptomycin and 1 uM hydrocortisone. Plating density for these cells is 0.4×10^6 cells/mL
The cells were resuspended in a corresponding medium at a required cell density (see above). 100 μ of cell suspension was added to each well of a flat bottom 96 well white plate. The compound was serially diluted in DMSO from 5 mM in 3-fold dilutions, and then diluted 1:250 in the RPMI 1640 medium containing 5% FBS and pen/strep. 100 μL of resulting 2× compound solution was added per well in duplicate and the cells were allowed to proliferate for 72 hours at 37° C.
Proliferation was measured using Cell Titer-Glo. The substrate was thawed and allowed to come to room temperature. After removal of top 100 μL of medium from each well, 100 μL of the premixed Cell Titer-Glo reagent was added to each well. The plates were mixed on an orbital shaker for three minutes to induce lysis and incubated at ambient temperature for an additional five minutes to allow the signal to equilibrate. The Luminescence was read on the Wallac Plate Reader.
The results of the ability of the compounds of the invention to inhibit JAK2 activity, when tested in the above assay, are shown in the following Table IX wherein the level of activity (i.e. the IC50) for each compound is indicated in Table IX. Thae compound numbers in Table IX Refers to the compound disclosed herein as being preparded hy the methods disclosed herein: […]

CN1CCN(c2ccc(Nc3ncc(F)c(Nc4ccc(OCC#N)cc4)n3)cc2C#N)CC1 [Compound I-41, N4-(4-Cyanomethoxyphenyl)-N2-[3-cyano-4-(4-methylpiperazin-1-yl)phenyl]-5-fluoro-2,4-pyrimidinediamine]
IC50 [1]: 3.4 nM
IC50 [2]: 388 nM
